The nature of data set [1]: Drug localization in golgi apparatus of human HepG2 cells by measuring quinolylated lysine residues at proteins at 20 uM measured after 24 hrs by nano LC/MS/MS analysis. The format is ADME, cell-based. The conditions noted are these: hepg2, 24 h.
The nature of data set [2]: Drug localization in nucleus of human HepG2 cells by measuring quinolylated lysine residues at proteins at 20 uM measured after 24 hrs by nano LC/MS/MS analysis. The format is ADME, cell-based. The following applies: hepg2, 24 h.
Data set [3] can be described thus: Drug localization in endoplasmic reticulum of human HepG2 cells by measuring quinolylated lysine residues at proteins at 20 uM measured after 24 hrs by nano LC/MS/MS analysis. The format is ADME, cell-based. The following applies: hepg2, 24 h.
The target of data set [4] is T1, Replicase polyprotein 1ab (Severe acute respiratory syndrome coronavirus 2, UniProt P0DTD1). Description: Inhibition of SARS-CoV-2 3CLpro using Dabcyl-KNSTLQSGLRKE-Edans fluorogenic peptide as substrate by FRET assay.
Data set [5] in a line: Drug localization in cytoskeleton of human HepG2 cells by measuring quinolylated lysine residues at proteins at 20 uM measured after 24 hrs by nano LC/MS/MS analysis. The format is ADME, cell-based. The following applies: hepg2, 24 h.
Data set [6] has as its target T1, Replicase polyprotein 1ab. Description: Inhibition of SARS-CoV-2 3CLpro preincubated for 60 mins followed by addition of Dabcyl-KNSTLQSGLRKE-Edans fluorogenic peptide as substrate by FRET assay.
Data set [7] can be described thus: Drug localization in cell membrane of human HepG2 cells by measuring quinolylated lysine residues at proteins at 20 uM measured after 24 hrs by nano LC/MS/MS analysis. The conditions noted are these: hepg2, 24 h. The format is ADME, cell-based.
The nature of data set [8]: Drug localization in cytosol of human HepG2 cells by measuring quinolylated lysine residues at proteins at 20 uM measured after 24 hrs by nano LC/MS/MS analysis. The format is ADME, subcellular.
Data set [9] is described as follows: Drug localization in endosome of human HepG2 cells by measuring quinolylated lysine residues at proteins at 20 uM measured after 24 hrs by nano LC/MS/MS analysis. The conditions noted are these: hepg2, 24 h. The format is ADME, cell-based.
Data set [10] in a line: Drug localization in cytoplasm of human HepG2 cells by measuring quinolylated lysine residues at proteins at 20 uM measured after 24 hrs by nano LC/MS/MS analysis. The conditions noted are these: hepg2, 24 h. The format is ADME, cell-based.
Data set [11] is described as follows: Drug localization in mitochondria of human HepG2 cells by measuring quinolylated lysine residues at proteins at 20 uM measured after 24 hrs by nano LC/MS/MS analysis. The format is ADME. The following applies: hepg2, 24 h.
Data set [12] relates to HepG2. Description: Cytotoxicity against human HepG2 cells assessed as inhibition of cell viability at 25 uM measured after 48 hrs by CCK-8 assay. The format is functional.

Structures are written as SMILES.

On to `C#Cc1ccc2c(ccc3[n+]2C(OC)C[Se]3)c1` (stereo unspecified), for which the Drug uptake in [1] turned out to be 1.53%; in data set [2] it was 22.61%; in [3] it was 1.53%; in data set [5], 11.11%; in [7], 11.88%; in data set [8], 19.16%. Besides, the values for the Drug uptake in [9], in [10] and in data set [11] were 2.3%, 15.71% and 2.3%, respectively. Besides, the IC50 in data set [4] came to 75 µM; in [6], 3.66 µM.

For the compound `COC1CSc2ccc3cc(C(=O)NCCCCCN4C(=O)c5cccc6c(N(C)C)ccc(c56)C4=O)ccc3[n+]21.Cl.[Cl-]` (stereo unspecified), the Activity in data set [12] amounted to 90%.

Consider `C#Cc1ccc2c(ccc3[n+]2C(OC)CS3)c1` (stereo unspecified), for which the Drug uptake in data set [1] is 5.26%; in data set [2], 27.19%; in data set [3] it was 4.39%; in data set [5], 7.02%; in data set [7], 8.77%; in data set [8], 17.54%. Further, the Drug uptake in data set [9] turned out to be 3.51%; in data set [10], 14.04%; in [11], 2.63%.

(Values after ChEMBL document CHEMBL5126631, “Chemo- and Site-Selective Lysine Modification of Peptides and Proteins under Native Conditions Using the Water-Soluble Zolinium” (J Med Chem, 2022).)
